Results: article PMC4872532, “Development of antithrombotic nanoconjugate blocking integrin α2β1-collagen interactions” (Scientific Reports, 2016)
Where no end group is shown, it is not given here.

Tests used:
[1] = biological target: Triple Helical Collagen Peptide (GPO)2GFOGER(GPO)3; experiment: Isothermal titration calorimetry, binding to triple helical collagen peptide; settings: L-PGMA in deionized water containing normal saline concentration, 600 μM collagen peptide, 10 °C, mean ± S.D., N = 3
Sequence of Triple Helical Collagen Peptide (GPO)2GFOGER(GPO)3 (as listed by the source): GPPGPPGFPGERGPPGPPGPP
Experimental: ITC experiments were performed to investigate the thermodynamic binding characteristics of L-PGMA NPs on the triple helical collagen peptide (Fig. 4A). The triple helix collagen peptide containing GFOGER recognition sequence was titrated with L-PGMA NPs. The data of LWWNSYY was also examined and used as control.
(§1) Glycidyl methacrylate (97%) and ethylene glycol dimethacrylate (97%) were purchased from Sigma-Aldrich (St. Louis, MO, USA). Dimethy sulfoxide (DMSO), epichlorohydrin (ECH), EG and sodium borohydride (NaBH4) were of analytical grade from Guangfu Fine Chemical Research Institute (Tianjin, China). The triple helix collagen peptide, with an amino acid sequence of (GPO)2GFOGER(GPO)3, was purchased as HPLC-purified powder with a purity of >95% from ChinaPeptides (Shanghai, China). LWWNSYY was obtained as lyophilized powder with a purity of >95% from GL Biochem (Shanghai, China). Sheep blood containing 0.4% sodium citrate (w/v) was purchased from Ruite Bio-tec (Guangzhou, China). Bovine serum albumin (BSA) was purchased from Sigma (St. Louis, MO, USA). ρ-nitrophenylphosphate (PNPP) was purchased from Aladdin Industrial Corporation (Shanghai, China) with a purity of 98%. Sodium chloride (NaCl), tris (hydroxymethyl) aminomethane (Tris) and other reagents were of analytical grade from Sangon Biotech Co., Ltd. (Shanghai, China).
The binding between collagen peptide and LWWNSYY in normal saline or normal saline containing 25% (v/v) EG was investigated following the procedure reported previously, the concentration of collagen peptide in the cell was 80 μM, while the concentration of LWWNSYY was 1.0 mM. To investigate the binding between collagen peptide and L-PGMA NPs in normal saline, the concentration of L-PGMA NPs in the cell was 48 μM (in full text, the concentration of L-PGMA NPs represents the concentration of conjugated LWWNSYY on the surface of L-PGMA NPs in solution), while the concentration of collagen peptide was 600 μM. All samples were treated by 20 min degassing prior to the examination. Isothermal calorimetric titrations were performed in a titration mode with a 1.425 mL sample cell, using a VP isothermal titration calorimeter (MicroCal, Northampton, MA). 8 μL LWWNSYY was injected over 16 s for 30 times, with a spacing time of 350 s between injections. The reference power was set to 20 μcal/s, and the stirring speed was 307 rpm. To reserve the active triple helical form of collagen peptide, the temperature in ITC cell was kept at 10 °C. […] Titration data were analyzed using MicroCal Origin (Version 7.0). […] Consequently, the integrated enthalpy was calculated from the single-site binding model. Thermodynamics parameters, including Kd, ΔH, TΔS, and Gibbs free energy (ΔG) were calculated.

[2] = Particle size and zeta potential by dynamic light scattering; type: physicochemical; settings: Zetasizer Nano, deionized water, 25 °C, mean ± S.D., N = 3
Experimental: Particle size and zeta potential were measured by dynamic light scattering (DLS) in deionized water at room temperature, as shown in Table 1.
The samples were submitted to size or zeta analysis by injecting them into disposable DLS or zeta potential cuvettes at 25 °C. The results were reported as the average of three repeated experiments.

[3] = system: carotid artery thrombus formation; experiment: FeCl3-induced carotid artery thrombus formation; type: in vivo, Wistar rats; settings: 0.625 mg/kg i.v., N = 5
Source text: Adult SPF male Wistar rats weighing 180–220 g were purchased from HFK Bioscience Co. (Beijing, China), and housed in a standard temperature-, light-, and humidity-controlled animal enclosures at the institute of Radiation Medicine in Chinese Academy of Medical Sciences. All rats had free access to food and water, and were acclimated for at least 1 week. The Institute of Radiation Medicine Animal Care and Use Committee approved the protocols for the care and use of animals, and all animal procedures were carried out in accordance with the approved guidelines.
FeCl3-induced arterial injury in rats was performed following the procedure reported previously. Rats were randomly divided into 4 groups (N = 5) and fasted for 12 h before the surgery. They were anesthetized with 10% chloral hydrate (3 mL/kg, i.p.) and placed on a 37 °C warming pad throughout the experiment. The right carotid artery was exposed by blunt dissection with minimal blood loss, and a Doppler flow probe (Transonic T400, USA) was attached to the artery to monitor blood flow continuously. […] After 20 min, the filter paper was removed, and the vessel was washed with normal saline. The blood flow was monitored continuously for 30 min after injury. At the end of 30-minute period, thrombus size was evaluated by the weight. Immediately after the experiment, the rats were sacrificed by cervical dislocation while still under deep anesthesia. Data are expressed as mean ± S.D. Data were analyzed by one-way ANOVA, followed by Duncan’s post hoc test. Statistical significance was set at p < 0.05.

[4] = UV-VIS quantification of immobilized LWWNSYY; type: physicochemical; settings: UV-VIS absorption peak at 280 nm; B-PGMA NPs background subtracted
Source text: The chemical conjugation of LWWNSYY onto the surface of PGMA-ECH NPs was examined using fourier transform infrared spectra (FTIR) spectroscopy (Fig. 2). […] This indicates successful chemical conjugation of LWWNSYY onto the surface of PGMA-ECH NPs through the opening of epoxy group. UV-VIS spectra further confirmed formation of L-PGMA NPs (Fig. S1 in Supporting Information), with an absorption peak at 280 nm corresponding to the characteristic absorption of tryptophan residues in LWWNSYY. […] The formation of LWWNSYY clusters due to its high hydrophobicity was then expected to be inhibited.
UV-VIS spectra of L-PGMA NPs were obtained by Lambda 35 (Perkin Elmer, USA) UV-VIS spectrophotometer. Spectra were collected within a range of 200–600 nm. The nanoparticles without conjugated LWWNSYY were denoted as B-PGMA NPs. That is, the value of B-PGMA NPs with the same concentration was subtracted as background in analysis. Data were representative of three repeated experiments.

ICR mice = experiment: Toxicity assay of inhibitors; type: in vivo; settings: for toxicity: i.v. 2.5 mg/kg, N = 4, 7 days
Experimental: S4. Toxicity Assay of Inhibitors
Eight specific pathogen free (SPF) ICR mice weighing about 18-22 g (HFK Bioscience Co., Ltd., Beijing, China) were randomly divided into two groups (N=4, half males and half females), and then treated with LWWNSYY or L-PGMA NPs (i.v., 2.5mg/10ml/kg) to investigate their toxicity, respectively. After treatment, animals were maintained under standard conditions with food ad libitum and maintained in a 12 h/12 h light/dark cycle at room temperature. Behavior, mortality and any other clinical signs of mice were observed […]
1.Bullock, A. N. et al., Thermodynamic stability of wild-type and mutant p53 core domain. P. Natl Acad. Sci.

[5] = system: platelet adhesion on collagen peptide; experiment: Platelet solid-phase adhesion assay on collagen peptide; type: cell-based, sheep; settings: for IC50, concentration required to inhibit half of the specific binding (platelet adhesion): collagen peptide coated 100 μg/mL, inhibitor in normal saline 1 h at 18 °C, washed, platelets 1 h at 18 °C, p-nitrophenyl phosphate read-out 405 nm, L-PGMA NPs concentration = conjugated LWWNSYY
Source text: as §1
Adhesion was determined colorimetrically, following the procedure reported previously. Anticoagulated sheep blood was obtained by the addition of 0.4% sodium citrate (w/v), allowing about five days for the transportation before the tests. Platelet-rich plasma (PRP) was obtained as the supernatant after centrifugation of the anticoagulated sheep blood at 180 g for 20 min at 4 °C. Then platelet was obtained as the precipitate after centrifugation of PRP at 1000 g for 10 min at 4 °C[12], which was suspended in adhesion buffer (TBS containing 0.1% BSA) to prepare platelet suspension buffer for further use. Microtiter HB 96-well plates (Costar, Corning Inc., USA) were coated with 100 μL collagen peptide (100 μg/mL) dissolved in 0.01 M acetic acid for 4 h at 18 °C. Reagents without adhesion were discarded, and the wells were washed by 200 μL TBS (50 mM Tris-HCl, 140 mM NaCl, 2 mM Mg^2+, pH 7.4) for three times. Then, wells were blocked for 1 h by 100 μL of TBS containing 50 mg/mL BSA. After three washes by 200 μL TBS, 100 μL LWWNSYY or L-PGMA NPs with different concentrations dissolved in normal saline was applied to each well and incubated at 18 °C for 1 h. 100 μL platelet suspension buffer were added to each well after three washes to remove non-reacted inhibitors, and plates were incubated at 18 °C for 1 h. Unbound platelets were then discarded, and the wells were washed as above. 150 μL lysis buffer (0.1 M citrate, pH 5.4, containing 0.1% Triton X-100 and 5 mM p-nitrophenyl phosphate) was added to each well. Reaction was terminated after 1 h by addition of 100 μL NaOH (3 M), and plates were read at 405 nm using an automated plate reader (ELX800, BioTek Instruments Inc., USA). […] The effect of binding to BSA or B-PGMA NPs was eliminated. According to the standard above, the absorption value was transformed to inhibition ratio. Data was presented as the mean ± S.D. from three independent experiments (n = 8). Dose-response inhibition ratio curves were fitted using the Hill equation[48][49]. The concentration of LWWNSYY or L-PGMA NPs required to inhibit half of the specific binding, IC50, and the maximum inhibition ratio, IRmax, were calculated based on the Hill equation[50].

Row | Substance | Kd ([1]; 48 μM L-PGMA NPs in cell (concentration of conjugated LWWNSYY), single-site binding model) [µM] | TΔS ([1]; 48 μM L-PGMA NPs in cell) [kcal/mol] | ΔG ([1]; 48 μM L-PGMA NPs in cell) [kcal/mol] | ΔH ([1]; 48 μM L-PGMA NPs in cell) [kcal/mol] | Hydrodynamic diameter ([2]; DLS) [nm] | Polydispersity index ([2]; DLS) | Zeta potential [2] [mV] | thrombus weight ([3]; 15 min before 12% FeCl3, 30 min after injury, mean ± S.D., control 7.41 ± 1.75 mg, LWWNSYY p < 0.01, L-PGMA NPs p < 0.001 compared to control, no significant difference between the two) [mg] | occlusion at 30 min ([3]; 15 min before 12% FeCl3) | mean blood flow, relative to initial blood flow ([3]; 15 min before 12% FeCl3, at end of 30-min period, p < 0.001 compared to control or LWWNSYY group) | reduction of thrombus weight compared to the control group ([3]; 30 min after injury) [%] | reduction of thrombus weight compared to LWWNSYY group ([3]; 30 min after injury, difference not significant) [%] | mean blood flow rate at all time points ([3]; compared to the control or LWWNSYY group) | immobilized LWWNSYY [4] | clinical signs (ICR mice; 2.5mg/10ml/kg i.v., N = 4 (half males, half females), observed 7 days) | toxicity (ICR mice) | plateau of inhibition ratio curve, platelet adhesion ([5]; 1–50 μg/mL LWWNSYY, 0.1–40 μg/mL L-PGMA NPs (conjugated LWWNSYY)) [%] | maximum inhibition ratio (IRmax) of platelet adhesion ([5]; Hill fit, 1–50 μg/mL LWWNSYY, 0.1–40 μg/mL L-PGMA NPs (conjugated LWWNSYY) in normal saline, 18 °C, mean ± S.D., N = 8) [%] | IC50, concentration required to inhibit half of the specific binding (platelet adhesion) ([5]; Hill fit, mean ± S.D., N = 8) [µg/mL] | IC50 relative to that of free LWWNSYY ([5]; decreased to this fraction of free LWWNSYY IC50)
1 | LWWNSYY [L-PGMA NPs, LWWNSYY-PGMA nanoparticles conjugate; LWWNSYY immobilized to the surface of poly(glycidyl methacrylate) nanoparticles] | 3.45 ± 1.06 | 8.44 ± 0.37 | -7.09 ± 0.16 | 1.35 ± 0.21 | 106.6 ± 0.91 | 0.06 ± 0.02 | −32.9 ± 0.57 | 3.70 ± 0.45 | No occlusion was observed | about 85% | ~50 | ~15 | significantly higher | 3.2 ± 0.2 mg in 100 mg of PGMA NPs | no abnormal clinical signs | little toxicity | 100 | 102.6 ± 3.4 | 1.83 ± 0.29 | 1/3
2 | LWWNSYY [LWWNSYY] | – | – | – | – | – | – | – | – | – | – | – | – | – | – | – | little toxicity | – | – | 5.66 ± 1.13 | –
